This note sets out measurements from patent US20120178671A1, “INHIBITION OF NFK-B MEDIATED VIRUS REPLICATION WITH SPECIFIC OLIGOSACCHARIDES” (N.V. Nutricia, priority 2009, published 2012).

SMILES strings stand for the structures. Entries after “also recorded” stand apart in the source; their conditions may differ. Like-named read-outs stand apart in the source and are kept apart here.

What all share (format): cell-based
The test system of one assay is NF-κB. As to the kind of experiment: Screening of oligosaccharides NFK-B inhibiting activity. Conditions: screening of (oligo)saccharides, Yes/No. From the text: It is hypothesized that the main site of action of the specific nutritional oligosaccharides as mentioned in example 1, is the intestine. […] Screening of oligosaccharides NFK-B inhibiting activity
Another assay has as its system NFκB activation. As to the kind of experiment: NFκB luciferase reporter in HEK293 cells with EPA, pAOS and L-cysteine, TNF-α induced. Particulars: HEK293-NFκB-Luc cells stimulated with TNFα; for activity at 1000 µM: Homo sapiens, read-out: Inhibition of NFκB activation, average. As for the experimental part:
Methods: HEK293 cells were stably transfected with a NFκB luciferase reporter gene construct. One day after cell plating EPA (0, 25 μM) was added at t=0 h. pAOS (0, 1, 2 and 3 g/L) were added at t=96 h and L-cysteine (0, 1 mM) at t=120 h. NFκB activation was induced by 2.5 h incubation with TNF-α. Luciferase activity was subsequently assessed at t=122.5 h. As a control for cell viability cellular ATP levels were determined.
In general terms: A reporter such as luciferase makes a cellular process visible.

In a further assay the test system is HEK293 cells. The assay is described as follows: Glutathione in HEK293 cells incubated with pAOS and NAC. Particulars: AOS 22.5 hr (18 h in Example 4), NAC 2.5 hr, compared with TNF-α-stimulated cells (control). As for the experimental part:
To determine this, HEK293 cells were incubated with AOS for 22.5 hr. and NAC in combination with TNF-α for 2.5 hr. Obtained GSH levels were corrected for cell numbers and results were compared levels with TNF-α-stimulated cells (control). […] The combination of NAC and AOS enhance GSH production up to 278% compared with control. Data sets were compared with their baseline controls (0 mg/ml AOS in combination with its specific concentration of NAC or L-cysteine) and presented in example 2. High concentrations of AOS and NAC result in a relative stronger increase in GSH levels.
Methods: HEK293 cells were incubated with citrus pectin oligosaccharide (pAOS) for 18 h, then as a cystein source, NAC was added and incubated for 2.5 h. After the incubation period, the cells were centrifugated (2000 rpm for 5 min). Medium was discarded and taken up into ice-cold perchloric acid (0.4 M) and resuspended. Samples were then centrifuged for 10 min. at 13.000 rpm. Supernatant was collected and used for glutathione measurements. Total glutathione measurements were performed in 10 or 20 times diluted samples.

Assay [1] relates to TNF-α-mediated NF-κB activation. The assay is described as follows: NF-κB luciferase reporter in HEK293 cells, TNF-α induced (pAOS with NAC or L-cysteine). Particulars: pAOS pre-incubated, NAC or L-cysteine added with TNF-α for 2.5 hr. On the procedure:
FIG. 2. NFkappaB response in HEK293 cells after 22.5 hr. incubation with AOS and NAC (A) or L-cysteine (B) with TNF-α for 2.5 hr. […] TNF-α was added to induce NF-κB activation. citrus pectin oligosaccharide (pAOS) was added 18 h prior to TNF-α addition (t=18 h). As a cystein source, NAC was added at the same time as TNF-α. At t=20.5 the production of luciferase was measured by chemiluminescence.

On to `OC[C@H]1O[C@@](CO)(OC[C@@]2(OC[C@@]3(OC[C@@]4(O[C@H]5O[C@H](CO)[C@@H](O)[C@H](O)[C@H]5O)O[C@H](CO)[C@@H](O)[C@@H]4O)O[C@H](CO)[C@@H](O)[C@@H]3O)O[C@H](CO)[C@@H](O)[C@@H]2O)[C@@H](O)[C@@H]1O` [1,1,1-kestopentaose], for which the NFκB inhibition result in the assay with NF-κB is “No”.

As to `OC[C@H]1O[C@H](OC[C@H]2OC(O)(CO)[C@@H](O)[C@@H]2O)[C@H](O)[C@@H](O)[C@@H]1O` (stereo partly drawn) [Palatinose], the NFκB inhibition entry with NF-κB is listed as “No”.

In the case of `OC[C@H]1O[C@@](CO)(OC[C@@]2(OC[C@@]3(O[C@H]4O[C@H](CO)[C@@H](O)[C@H](O)[C@H]4O)O[C@H](CO)[C@@H](O)[C@@H]3O)O[C@H](CO)[C@@H](O)[C@@H]2O)[C@@H](O)[C@@H]1O` [1,1-kestotetraose], the NFκB inhibition entry in the assay on NF-κB is listed as “No”.

Consider `CC/C=C\C/C=C\C/C=C\C/C=C\C/C=C\CCCC(=O)O` [EPA, eicosapentaenoic acid], for which the “Inhibition of NFκB activation, average” value was determined as 113 in the assay on NFκB activation (AOS 0 mg/ml, EPA 25 uM and/or L-cysteine 1 mM as labelled, control without additions = 100); 62 in the assay on NFκB activation (AOS 1 mg/ml, alone or together with the labelled EPA 25 uM and/or L-cysteine 1 mM, control = 100); 29 in the assay with NFκB activation (AOS 2 mg/ml, alone or together with the labelled EPA 25 uM and/or L-cysteine 1 mM, control = 100); 8 with NFκB activation (AOS 3 mg/ml, alone or together with the labelled EPA 25 uM and/or L-cysteine 1 mM, control = 100).

On to `O=C(O)[C@H]1O[C@H](O[C@@H]2[C@H](O)[C@@H](O)[C@@H](O[C@@H]3[C@H](O)[C@@H](O)C(O)O[C@@H]3C(=O)O)O[C@@H]2C(=O)O)[C@H](O)[C@@H](O)[C@H]1O` (stereo partly drawn) [Trigalacturonic acid], for which the NFκB inhibition entry in the assay with NF-κB is on record as “Yes”.

`O=C[C@H](O)[C@@H](O)[C@@H](O)[C@H](O)C(=O)O` [Galacturonic acid]: in the assay with NF-κB, the NFκB inhibition result is “No”.

Take `O=C(O)[C@H]1O[C@H](O[C@@H]2[C@H](O)[C@@H](O)[C@@H](O)O[C@@H]2C(=O)O)[C@H](O)[C@@H](O)[C@H]1O` [Digalacturonic acid]: in the assay with NF-κB, the NFκB inhibition entry was “Yes”.

On to `OC[C@H]1O[C@@](CO)(OC[C@@]2(O[C@H]3O[C@H](CO)[C@@H](O)[C@H](O)[C@H]3O)O[C@H](CO)[C@@H](O)[C@@H]2O)[C@@H](O)[C@@H]1O` [1-kestose], for which the NFκB inhibition entry in the assay with NF-κB is on record as “No”.

Regarding `N[C@@H](CS)C(=O)O` [L-cysteine], the activity at 1000 µM with NFκB activation (HEK293, AOS 0 mg/ml, EPA 25 uM and/or L-cysteine 1 mM as labelled, control without additions = 100) came out at 80%; in the assay with NFκB activation (HEK293, AOS 1 mg/ml, alone or together with the labelled EPA 25 uM and/or L-cysteine 1 mM, control = 100), 55%; in the assay on NFκB activation (HEK293, AOS 2 mg/ml, alone or together with the labelled EPA 25 uM and/or L-cysteine 1 mM, control = 100), 32%; with NFκB activation (HEK293, AOS 3 mg/ml, alone or together with the labelled EPA 25 uM and/or L-cysteine 1 mM, control = 100) it was 24%.

For the compound `CC(=O)N[C@@H](CS)C(=O)O` [NAC, N-acetyl cysteine], the “GSH (glutathione) levels, result in words” value in the assay with HEK293 cells is given as “enhances GSH levels in a concentration of 10 mM”. The “TNF-α-mediated NF-κB activation, result in words” value in assay [1] was “capable of blocking NF-κB activation; also recorded: inhibited TNF-α-mediated NF-κB activation dose dependently”.

For `O.OC[C@H]1O[C@H](OC[C@H]2O[C@H](OC[C@H]3O[C@H](O[C@]4(CO)O[C@H](CO)[C@@H](O)[C@@H]4O)[C@H](O)[C@@H](O)[C@@H]3O)[C@H](O)[C@@H](O)[C@H]2O)[C@H](O)[C@@H](O)[C@H]1O` [Stachyose hydrate], the NFκB inhibition entry in the assay with NF-κB is recorded as “No”.
